Assay results published in US6503885B1, “Carboxymethylgalactose derivatives” (Otsuka Pharmaceutical Co., Ltd., priority 1998, dated 2003).

Legend:
Format in all cases: cell-based
E-selectin-IgG = assay: Binding inhibitory activity test: HL-60 cell binding to immobilized E-selectin-IgG; settings: 0.3 mM test compound; HL-60 cells; 40 ng E-selectin-IgG; average of 5 wells ± SE
Description: [The source words this procedure for another target and says it was used here with some conditions changed.] (§1) The binding inhibitory activity of the test compound was measured in terms of the inhibition of binding of premyelocytic leukemia HL-60 cells to immobilized recombinant selectin-IgG fusion proteins by addition of the test compound to the binding reaction system, in accordance with the method described in the above-identified reference.
(§2) Stated more specifically, 20 ng of purified P-selectin-IgG was added to each well of a microtiter plate (96 wells, Nunc Maxisorp) and immobilized. Phosphate buffered saline (PBS) was added to each well to make a total volume of 100 μl and the plate was allowed to stand at 4° C. overnight. The excess solution was removed by aspiration, and non-specific binding sites were blocked with PBS containing 1% bovine serum albumin (BSA) at room temperature for 1 hour. After removal of the blocking solution by aspiration, 0.3 mM of the test compound as dissolved in 100 μl of a binding buffer (RPMI1640), and 10^6 cells/ml of HL-60 cells as suspended in 100 μl of the binding buffer were added to each well. The plate was centrifuged at 500 rotations per minute for 2 minutes at room temperature, and each well was filled with the binding buffer. The plate was carefully sealed with an adhesive tape so as to avoid trapping any air bubbles. The plate was turned upside down and centrifuged at 500 rotations per minute for 10 minutes to remove unbound HL-60 cells. The adhesive tape was peeled off and the buffer was removed by aspiration. The number of cells bound/well was determined using a cell counting kit (WST-1 assay kit, product of Dojin Kagaku K.K.) (M. Ishiyama. M. Shiga, M. Mizoguchi and P. He, Chem. Pharm. Bull., 41, 1118-1122 (1994)).
(§3) The binding inhibition (%) was calculated from the number (M) of bound cells achieved in the test using the test compound and the number (N) of bound cells achieved in the comparative test not using the test compound, according to the following equation:
(§4) Binding inhibition (%)=100×(N−M)/N […]
(§5) The data were expressed as an average value of 5 wells±standard error (SE).

P-selectin-IgG = assay: Binding inhibitory activity test: HL-60 cell binding to immobilized P-selectin-IgG; settings: 0.3 mM test compound; HL-60 cells; 20 ng P-selectin-IgG per well; average of 5 wells ± SE
L-selectin-IgG = assay: Binding inhibitory activity test: HL-60 cell binding to immobilized L-selectin-IgG; settings: 0.3 mM test compound; HL-60 cells; 100 ng L-selectin-IgG; average of 5 wells ± SE
Description: [The source words this procedure for another target and says it was used here with some conditions changed.] as §1, §2, §3, §4, §5

Molecule | Binding inhibition (%) E-selectin (E-selectin-IgG) [%] | Binding inhibition (%) P-selectin (P-selectin-IgG) [%] | Binding inhibition (%) L-selectin (L-selectin-IgG) [%]
CCCCCCCCCCCCCCC(CCCCCCCCCCCCCC)CO[C@@H]1O[C@H](CO)[C@H](O)[C@H](OS(=O)(=O)O)[C@H]1O [Comparative compound, 2-(tetradecyl)hexadecyl 3-O-sulfo-β-D-galactopyranoside] | 0 ± 5 | 6 ± 3 | 13 ± 3
CCCCCCCCCCCCCCC(CCCCCCCCCCCCCC)CO[C@@H]1O[C@H](CO)[C@H](O)[C@H](CC(=O)O)[C@H]1O [Compound of the invention, 2-(tetradecyl)hexadecyl 3-deoxy-3-C-(carboxymethyl)-β-D-glactopyranoside] | 12 ± 8 | 79 ± 3 | 92 ± 3
sialyl Lewis-x [SLe^x] | 0 ± 4 | 3 ± 6 | 0 ± 5
